Tested on: HIV-1 NL4-3 virus
Assay: Anti-HIV-1 activity, multicycle assay with HIV-1 NL4-3 in TZM-bl cells
Format: cell-based
Settings: for EC50: Human immunodeficiency virus 1, NL43, TZM-bl; for SI (selectivity index, ratio of CC50/EC50) / anti-HIV-1 activity (in words): TZM-bl cells; for anti-HIV-1 activity (in words): at the test concentration

Row | SMILES | EC50 | SI (selectivity index, ratio of CC50/EC50) (Table 1) | anti-HIV-1 activity (in words) | SI (selectivity index, ratio of CC50/EC50) (Table 2)
1 | COc1ccc(N(C)C(=O)[C@H](Cc2cc(F)cc(F)c2)NC(=O)c2cn(Cc3cccc([N+](=O)[O-])c3)nn2)cc1 [I-8k, (S)-N-(3-(3,5-Difluorophenyl)-1-((4-methoxyphenyl)(methyl)amino)-1-oxopropan-2-yl)-1-(3-nitrobenzyl)-1H-1,2,3-triazole-4-carboxamide] | 10 ± 1.76 µM | – | – | –
2 | COc1ccc(N(C)C(=O)[C@H](Cc2cc(F)cc(F)c2)NC(=O)c2cn(Cc3ccc([N+](=O)[O-])cc3)nn2)cc1 [I-8l, (S)-N-(3-(3,5-Difluorophenyl)-1-((4-methoxyphenyl)(methyl)amino)-1-oxopropan-2-yl)-1-(4-nitrobenzyl)-1H-1,2,3-triazole-4-carboxamide] | 9.26 ± 2.54 µM | >1.96 | – | –
3 | COc1ccc(N(C)C(=O)[C@H](Cc2cc(F)cc(F)c2)NC(=O)c2cn(Cc3cccc4ccccc34)nn2)cc1 [I-8m, (S)-N-(3-(3,5-Difluorophenyl)-1-((4-methoxyphenyl)(methyl)amino)-1-oxopropan-2-yl)-1-(naphthalen-1-ylmethyl)-1H-1,2,3-triazole-4-carboxamide] | 14.8 ± 3.24 µM | >1.22 | – | –
4 | COc1ccc(N(C)C(=O)[C@H](Cc2cc(F)cc(F)c2)NC(=O)c2cn(Cc3ccc4ccccc4c3)nn2)cc1 [I-8n, (S)-N-(3-(3,5-Difluorophenyl)-1-((4-methoxyphenyl)(methyl)amino)-1-oxopropan-2-yl)-1-(naphthalen-2-ylmethyl)-1H-1,2,3-triazole-4-carboxamide] | 14.6 ± 2.34 µM | >1.23 | – | –
5 | COc1ccc(N(C)C(=O)[C@H](Cc2cc(F)cc(F)c2)NC(=O)c2cn(-c3ccc4c(c3)OCO4)nn2)cc1 [I-8q, (S)-1-(Benzo[d][1,3]dioxol-5-yl)-N-(3-(3,5-difluorophenyl)-1-((4-methoxyphenyl)(methyl)amino)-1-oxopropan-2-yl)-1H-1,2,3-triazole-4-carboxamide] | 9.15 ± 2.8 µM | >2.04 | – | –
6 | COc1ccc(N(C)C(=O)[C@H](Cc2cc(F)cc(F)c2)NC(=O)c2cn(Cc3ccc(S(N)(=O)=O)cc3)nn2)cc1 [I-8r, (S)-N-(3-(3,5-Difluorophenyl)-1-((4-methoxyphenyl)(methyl)amino)-1-oxopropan-2-yl)-1-(4-sulfamoylbenzyl)-1H-1,2,3-triazole-4-carboxamide] | 12.3 ± 2.39 µM | >1.39 | – | –
7 | COc1ccc(N(C)C(=O)[C@H](Cc2cc(F)cc(F)c2)NC(=O)c2cn(Cc3ccc(C(N)=O)cc3)nn2)cc1 [I-8s, (S)-1-(4-Carbamoylbenzyl)-N-(3-(3,5-difluorophenyl)-1-((4-methoxyphenyl)(methyl)amino)-1-oxopropan-2-yl)-1H-1,2,3-triazole-4-carboxamide] | 11.1 ± 2 µM | >1.64 | – | –
8 | COc1ccc(N(C)C(=O)[C@H](Cc2cc(F)cc(F)c2)NC(=O)c2cn(CS(=O)(=O)c3ccccc3)nn2)cc1 [I-8t, (S)-N-(3-(3,5-Difluorophenyl)-1-((4-methoxyphenyl)(methyl)amino)-1-oxopropan-2-yl)-1-((phenylsulfonyl)methyl)-1H-1,2,3-triazole-4-carboxamide] | 4.21 ± 0.9 µM | >4.17 | – | –
9 | COc1ccc(N(C)C(=O)[C@H](Cc2cc(F)cc(F)c2)NC(=O)c2cccc(-c3cn(Cc4ccccc4[N+](=O)[O-])nn3)c2)cc1 [II-10a, (S)-N-(3-(3,5-Difluorophenyl)-1-((4-methoxyphenyl)(methyl)amino)-1-oxopropan-2-yl)-3-(1-(2-nitrobenzyl)-1H-1,2,3-triazol-4-yl)benzamide] | > 35.5 µM | – | – | –
10 | COc1ccc(N(C)C(=O)[C@H](Cc2cc(F)cc(F)c2)NC(=O)c2cccc(-c3cn(Cc4cccc([N+](=O)[O-])c4)nn3)c2)cc1 [II-10b, (S)-N-(3-(3,5-Difluorophenyl)-1-((4-methoxyphenyl)(methyl)amino)-1-oxopropan-2-yl)-3-(1-(3-nitrobenzyl)-1H-1,2,3-triazol-4-yl)benzamide] | > 35.5 µM | – | – | –
11 | COc1ccc(N(C)C(=O)[C@H](Cc2cc(F)cc(F)c2)NC(=O)c2cccc(-c3cn(Cc4ccc(C(N)=O)cc4)nn3)c2)cc1 [II-10d, (S)-3-(1-(4-Carbamoylbenzyl)-1H-1,2,3-triazol-4-yl)-N-(3-(3,5-difluorophenyl)-1-((4-methoxyphenyl)(methyl)amino)-1-oxopropan-2-yl)benzamide] | 23.4 ± 6.88 µM | – | exhibited anti-HIV-1 activity at the test concentration | >1.37
12 | COc1ccc(N(C)C(=O)[C@H](Cc2cc(F)cc(F)c2)NC(=O)c2cccc(-c3cn(CC(=O)Nc4ccccc4)nn3)c2)cc1 [II-10e, (S)-N-(3-(3,5-Difluorophenyl)-1-((4-methoxyphenyl)(methyl)amino)-1-oxopropan-2-yl)-3-(1-(2-oxo-2-(phenylamino)ethyl)-1H-1,2,3-triazol-4-yl)benzamide] | 8.16 ± 2.56 µM | – | exhibited anti-HIV-1 activity at the test concentration | >3.92
13 | COc1ccc(N(C)C(=O)[C@H](Cc2cc(F)cc(F)c2)NC(=O)c2cccc(-c3cn(Cc4ccc(S(N)(=O)=O)cc4)nn3)c2)cc1 [II-10f, (S)-N-(3-(3,5-Difluorophenyl)-1-((4-methoxyphenyl)(methyl)amino)-1-oxopropan-2-yl)-3-(1-(4-sulfamoylbenzyl)-1H-1,2,3-triazol-4-yl)benzamide] | > 30.3 µM | – | – | –
14 | COc1ccc(N(C)C(=O)[C@H](Cc2cc(F)cc(F)c2)NC(=O)c2cccc(-c3cn(CCCc4ccccc4)nn3)c2)cc1 [II-10g, (S)-N-(3-(3,5-Difluorophenyl)-1-((4-methoxyphenyl)(methyl)amino)-1-oxopropan-2-yl)-3-(1-(3-phenylpropyl)-1H-1,2,3-triazol-4-yl)benzamide] | > 32.8 µM | – | – | –
15 | COc1ccc(N(C)C(=O)[C@H](Cc2cc(F)cc(F)c2)NC(=O)c2cccc(-c3cn(CCc4ccsc4)nn3)c2)cc1 [II-10h, (S)-N-(3-(3,5-Difluorophenyl)-1-((4-methoxyphenyl)(methyl)amino)-1-oxopropan-2-yl)-3-(1-(2-(thiophen-3-yl)ethyl)-1H-1,2,3-triazol-4-yl)benzamide] | 7.48 ± 2.83 µM | – | exhibited anti-HIV-1 activity at the test concentration | >4.44
16 | COc1ccc(N(C)C(=O)[C@H](Cc2cc(F)cc(F)c2)NC(=O)c2cccc(-c3cn(Cc4ccc5ccccc5c4)nn3)c2)cc1 [II-10j, (S)-N-(3-(3,5-Difluorophenyl)-1-((4-methoxyphenyl)(methyl)amino)-1-oxopropan-2-yl)-3-(1-(naphthalen-2-ylmethyl)-1H-1,2,3-triazol-4-yl)benzamide] | > 31.7 µM | – | – | –
17 | COc1ccc(N(C)C(=O)[C@H](Cc2cc(F)cc(F)c2)NC(=O)c2cccc(-c3cn(Cc4cccc5ccccc45)nn3)c2)cc1 [II-10k, (S)-N-(3-(3,5-Difluorophenyl)-1-((4-methoxyphenyl)(methyl)amino)-1-oxopropan-2-yl)-3-(1-(naphthalen-1-ylmethyl)-1H-1,2,3-triazol-4-yl)benzamide] | > 31.7 µM | – | – | –
18 | COC(=O)Cn1cc(-c2cccc(C(=O)N[C@@H](Cc3cc(F)cc(F)c3)C(=O)N(C)c3ccc(OC)cc3)c2)nn1 [II-10l, Methyl (S)-2-(4-(3-((3-(3,5-difluorophenyl)-1-((4-methoxyphenyl)(methyl)amino)-1-oxopropan-2-yl)carbamoyl)phenyl)-1H-1,2,3-triazol-1-yl)acetate] | – | – | lost anti-HIV-1 activity completely | –
19 | CCOC(=O)Cn1cc(-c2cccc(C(=O)N[C@@H](Cc3cc(F)cc(F)c3)C(=O)N(C)c3ccc(OC)cc3)c2)nn1 [II-10m, Ethyl (S)-2-(4-(3-((3-(3,5-difluorophenyl)-1-((4-methoxyphenyl)(methyl)amino)-1-oxopropan-2-yl)carbamoyl)phenyl)-1H-1,2,3-triazol-1-yl)acetate] | – | – | lost anti-HIV-1 activity completely | –
20 | COC(=O)CCCn1cc(-c2cccc(C(=O)N[C@@H](Cc3cc(F)cc(F)c3)C(=O)N(C)c3ccc(OC)cc3)c2)nn1 [II-10n, Methyl (S)-4-(4-(3-((3-(3,5-difluorophenyl)-1-((4-methoxyphenyl)(methyl)amino)-1-oxopropan-2-yl)carbamoyl)phenyl)-1H-1,2,3-triazol-1-yl)butanoate] | > 33.8 µM | – | lost anti-HIV-1 activity completely | –
21 | COc1ccc(N(C)C(=O)[C@H](Cc2ccccc2)NC(=O)c2cccc(-c3cn(Cc4ccccc4[N+](=O)[O-])nn3)c2)cc1 [III-15a, (S)-N-(1-((4-Methoxyphenyl)(methyl)amino)-1-oxo-3-phenylpropan-2-yl)-3-(1-(2-nitrobenzyl)-1H-1,2,3-triazol-4-yl)benzamide] | > 33.9 µM | – | – | –
22 | COc1ccc(N(C)C(=O)[C@H](Cc2ccccc2)NC(=O)c2cccc(-c3cn(Cc4cccc([N+](=O)[O-])c4)nn3)c2)cc1 [III-15b, (S)-N-(1-((4-Methoxyphenyl)(methyl)amino)-1-oxo-3-phenylpropan-2-yl)-3-(1-(3-nitrobenzyl)-1H-1,2,3-triazol-4-yl)benzamide] | > 33.9 µM | – | – | –
23 | COc1ccc(N(C)C(=O)[C@H](Cc2ccccc2)NC(=O)c2cccc(-c3cn(Cc4ccc([N+](=O)[O-])cc4)nn3)c2)cc1 [III-15c, (S)-N-(1-((4-Methoxyphenyl)(methyl)amino)-1-oxo-3-phenylpropan-2-yl)-3-(1-(4-nitrobenzyl)-1H-1,2,3-triazol-4-yl)benzamide] | > 33.9 µM | – | – | –
24 | COc1ccc(N(C)C(=O)[C@H](Cc2ccccc2)NC(=O)c2cccc(-c3cn(Cc4ccc(C(N)=O)cc4)nn3)c2)cc1 [III-15d, (S)-3-(1-(4-Carbamoylbenzyl)-1H-1,2,3-triazol-4-yl)-N-(1-((4-methoxyphenyl)(methyl)amino)-1-oxo-3-phenylpropan-2-yl)benzamide] | 26.2 ± 7.3 µM | – | exhibited anti-HIV-1 activity at the test concentration | >1.30
25 | COc1ccc(N(C)C(=O)[C@H](Cc2ccccc2)NC(=O)c2cccc(-c3cn(CC(=O)Nc4ccccc4)nn3)c2)cc1 [III-15e, (S)-N-(1-((4-Methoxyphenyl)(methyl)amino)-1-oxo-3-phenylpropan-2-yl)-3-(1-(2-oxo-2-(phenylamino)ethyl)-1H-1,2,3-triazol-4-yl)benzamide] | > 34 µM | – | – | –
